Source: US20070082883A1, “HIV protease inhibitors” (THE BOARD OF TRUSTEES OF THE UNIVERSITY OF ILLINOIS, priority 2002, published 2007)

Target: T1, HIV-1 protease (Human immunodeficiency virus type 1 group M subtype B, UniProt P04585)
T1 construct: made in house; host or cells: E. coli BL21 (dE3)pLysS, pET30a vector
Assay: HIV-1 Protease Inhibition Assay
Type: biochemical
Conditions: fluorogenic substrate assay
From the text: Assays of the dose-response effect of inhibitor compounds can be described as a curve expressing a degree of inhibition as a function of concentration. The curve theoretically passes through a point at which the concentration is sufficient to reduce activity of the HIV protease enzyme to a level that is 50% that of the difference between minimal and maximal enzyme activity in the assay.
HIV-1 Protease Inhibition Assay
The HIV-1 protease gene was subcloned into the pET30a vector (Novagen) and then transformed into BL21 (dE3)pLysS cells for protein expression. Protein expression and purification were followed according to Tang's procedure (Hong et al., Biochemistry, 1996, 35, 10627-10633). […] The inclusion body containing some bacterial proteins was thoroughly washed by using TRITON X-100, solubilized in […] and passed through the Q-sepharose column to remove the bacterial proteins which interfered with subsequent refolding steps. HIV-1 protease was refolded from the urea to an active form by dialysis. As a final step, gel filtration chromatography was used to remove impurities after refolding. Activities of purified HIV-1 protease were examined using a fluorogenic substrate, 2-aminobenzoyl-Thr-Ile-Nle-Phe(pNO2)-Gln-Arg-NH2 (Novabiochem). […] In the condition of So<<Km, v=Eo(kcat/Km)So, where Eo is the total enzyme concentration, and So is the substrate concentrate. […] Assays are carried out as described by Toth and Marshall (Toth et al., Int. J. Pept. Protein Res., 1990, 36, 544-50).

Structure (SMILES) | IC50 [nM] | Ki [nM]
O=C1CC[C@@H](CN(C[C@@H](O)[C@H](Cc2ccccc2)NC(=O)OC2CO[C@H]3OCC[C@@H]23)S(=O)(=O)c2ccc([N+](=O)[O-])cc2)N1 (stereo partly drawn) [Compound 275] | 0.37 | –
O=C(N[C@@H](Cc1ccccc1)[C@H](O)CN1CCCCCCCOc2cccc(c2)S1(=O)=O)O[C@@H]1CC2CCO[C@@H]2C1 (stereo partly drawn) [Compound 225h] | 6.8 | 2.1
CC(C)CN(C[C@@H](O)[C@H](Cc1ccccc1)NC(=O)OC1CO[C@H]2OCCC12)S(=O)(=O)c1cncc(N)c1 (stereo partly drawn) [Compound 166] | 0.91 | 0.28
Cc1ccc(S(=O)(=O)N(CC(C)C)C[C@@H](O)[C@H](Cc2ccccc2)NC(=O)OC2CC3CCO[C@@H]3C2)cc1CO (stereo partly drawn) [Compound 157] | 2.8 | 0.87
COc1ccc(S(=O)(=O)N(CC(C)C)C[C@@H](O)[C@H](Cc2ccc(OCc3ccccc3)cc2)NC(=O)OC(C)(C)C)cc1 [Compound 207] | 96 | 30
CC(C)CN(C[C@@H](O)[C@H](Cc1ccccc1)NC(=O)OC(C)(C)C)C1CC2(CCCC2)NC1=O (stereo partly drawn) [Compound 528b] | 386 | –
CC(C)CN(C[C@@H](O)[C@H](Cc1ccccc1)NC(=O)OC1CC2CCO[C@@H]2C1)S(=O)(=O)c1ccc(CN(C)C)cc1 (stereo partly drawn) [Compound 127] | 50 | –
CC(C)CN(C[C@@H](O)[C@H](Cc1ccccc1)NC(=O)OC1CO[C@H]2OCCC12)S(=O)(=O)c1cccc(/C=N/O)c1 (stereo partly drawn) [Compound 120] | 2.4 | 0.74
CC(C)CN(C[C@@H](O)[C@H](Cc1ccccc1)NC(=O)O[C@H]1CCOC1)S(=O)(=O)c1ccc(Cl)c(O)c1 [Compound 153] | 3.6 | 1.1
C=CCCCCN(C[C@@H](O)[C@H](Cc1ccccc1)NC(=O)O[C@H]1CO[C@H]2OCCC21)S(=O)(=O)c1cccc(OCC=C)c1 (stereo partly drawn) [Compound 229] | 9.1 | 2.1
CC(C)CN(C[C@@H](O)[C@H](Cc1ccccc1)NC(=O)O[C@H]1CCOC1)S(=O)(=O)c1ccc(F)c(N)c1 [Compound 182] | 4.6 | 1.4
COc1ccc(S(=O)(=O)N(CC(C)C)C[C@H](O)[C@H](Cc2ccc(OCc3ccccc3)cc2)NC(=O)O[C@H]2CO[C@H]3OCCC32)cc1 (stereo partly drawn) [Compound 211] | 90 | 28
C=CCCCCOc1cccc(S(=O)(=O)N(CCCCC=C)C[C@@H](O)[C@H](Cc2ccccc2)NC(=O)O[C@@H]2CC3CCO[C@@H]3C2)c1 (stereo partly drawn) [Compound 225i] | 17 | 5.3
Cc1ccc(S(=O)(=O)OCc2ccc(S(=O)(=O)N(CC(C)C)C[C@@H](O)[C@H](Cc3ccccc3)NC(=O)OC3CO[C@H]4OCCC34)cc2)cc1 (stereo partly drawn) [Compound 117] | 2.4 | 0.74
Cc1ccc(S(=O)(=O)N(CC(C)C)C[C@@H](O)[C@H](CC2CCN(C(=O)c3ccccc3)CC2)NC(=O)O[C@H]2CCOC2)cc1 [Compound 147] | 60 | –
CC(C)CN(C[C@@H](O)[C@H](Cc1ccccc1)NC(=O)O[C@@H]1CC2CCO[C@@H]2C1)S(=O)(=O)c1cccc(/C=N/O)c1 (stereo partly drawn) [Compound 257] | 2.9 | –
Cc1c(O)cccc1C(=O)N[C@@H](Cc1ccccc1)[C@H](O)CN(CC(C)C)S(=O)(=O)c1ccc(F)c(N)c1 [Compound 183] | 179 | 56
COc1ccc(S(=O)(=O)N(C[C@@H]2CCC(=O)N2)C[C@@H](O)[C@H](Cc2ccccc2)NC(=O)OC(C)(C)C)cc1 [Compound 272] | 3.42 | –
Cc1ccc(S(=O)(=O)N(C[C@@H](O)[C@H](Cc2ccccc2)NC(=O)OC2CC3CCO[C@@H]3C2)C2CCOC2)cc1CO (stereo partly drawn) [Compound 162] | 4.1 | 1.3
C=CCCCCN(C[C@@H](O)[C@H](Cc1ccccc1)NC(=O)O[C@H]1CO[C@H]2OCCC21)S(=O)(=O)c1cccc(OCCCC=C)c1 (stereo partly drawn) [Compound 225] | 8.1 | 2.5
O=C(N[C@@H](Cc1ccccc1)[C@H](O)CN1CCC/C=C\CCCCOc2ccccc2COC1=O)O[C@@H]1CC2CCO[C@@H]2C1 (stereo partly drawn) [Compound 227] | 495 | 154
